Read-outs that look alike come from different tables or passages of the source.
Assays:
[1] = Phase 1b severe COVID-19 study: pharmacokinetics (plasma concentrations, Bayesian population PK); assay type: in vivo, human; details: for AUC(0-t) / Cmax: human, oral, 300 mg
Experimental: RIPK1 Inhibitor concentrations at selected time points over the two weeks of treatment were summarized by descriptive statistics. PK parameters such as Cmax, tmax, and AUC were calculated by a Bayesian analysis: the main results are presented in Section 5.2.
Descriptive statistics on plasma concentration of RIPK1 Inhibitor were analyzed by the Sponsor's Biostatistics Department.
Plasma concentrations of RIPK1 Inhibitor was listed and summarized by arithmetic mean, geometric mean, standard deviation (SD), standard error of the mean (SEM), coefficient of variance (%) (CV), minimum, median, maximum, and number of observations by timepoints. When applicable, relevant data were summarized by route: i.e., oral and oral gavage, and timepoints.
The pharmacokinetic parameters in participants with severe COVID-19 were assessed by Bayesian analysis using a POP population PK model (P0H0757) developed in other Phase 1 studies.
PK parameters were determined for 46 participants (one participant was excluded because all plasma concentrations were BLOQ). A summary of descriptive statistics on RIPK1 Inhibitor plasma AUC0-12, Cmax, and Ctrough over 2 weeks of treatment are presented in Table 43.

[2] = system: peripheral cytokine and biomarker levels; assay: Phase 1b severe COVID-19 study: peripheral cytokine and biomarker levels; assay type: in vivo, human
Excerpt: The biomarker variables included pro-inflammatory cytokines (such as IL 4, IL-6, IL-10, IL-17, TNFα, and IFNγ) and RIPK1 PD cytokines/chemokines (such as MIP1α and MIP1β) that are elevated in participants with SARS-CoV-2.
The exploratory PD/biomarker endpoint was the change from baseline in peripheral cytokine and biomarker levels up to EOT.
Each analyte was selected, and the assay analytically validated based on reports in the literature and in-house research.

[3] = 600 mg, Day 7, LOCF, Safety population
[4] = 600 mg, Day 7, not statistically significant
[5] = Day 7 vs baseline, LOCF, Safety population

CN1C(=O)[C@@H](NC(=O)c2nnc(Cc3ccccc3)[nH]2)COc2cccnc21 [RIPK1 Inhibitor, (S)-5-benzyl-N-(5-methyl-4-oxo-2,3,4,5-tetrahydropyrido[3,2-b][1,4]oxazepin-3-yl)-4H-1,2,4-triazole-3-carboxamide]
steady state reached on ([1]; 300 mg BID for up to 14 days, severe COVID-19): 3 days | exposure difference between male and female ([1]; 300 mg BID, severe COVID-19): No obvious exposure difference | higher AUC0-12h in patients<85.6 kg as compared to ≥85.6 kg ([1]; 300 mg BID, severe COVID-19): 14% | Ctrough, mean (SD) ([1]; 300 mg BID, steady state (Day 3), plasma, severe COVID-19, Bayesian population PK): 2025 (783) ng/mL | Ctrough ([1]; Day 1 (n = 46), Mean (SD), 300 mg BID, plasma, participants with severe COVID-19, Bayesian population PK analysis): 1457 (442) ng/mL | Ctrough ([1]; Day 3 (n = 42), Mean (SD), 300 mg BID, plasma, participants with severe COVID-19, Bayesian population PK analysis): 2025 (783) ng/mL | Ctrough ([1]; Day 7 (n = 26), Mean (SD), 300 mg BID, plasma, participants with severe COVID-19, Bayesian population PK analysis): 2142 (838) ng/mL | Ctrough ([1]; Day 14 (n = 10), Mean (SD), 300 mg BID, plasma, participants with severe COVID-19, Bayesian population PK analysis): 2524 (875) ng/mL | AUC(0-t) ([1]; plasma, 300 mg BID, steady state (Day 3), plasma, severe COVID-19, Bayesian population PK, read-out: AUC0-12h, mean (SD)): 42200 ng·h/mL | Cmax ([1]; plasma, 300 mg BID, steady state (Day 3), plasma, severe COVID-19, Bayesian population PK, read-out: Cmax, mean (SD)): 5170 ng/mL | AUC(0-t) ([1]; plasma, Day 1 (n = 46), Mean (SD), 300 mg BID, plasma, participants with severe COVID-19, Bayesian population PK analysis, read-out: AUC0-12): 28200 ng·h/mL | Cmax ([1]; plasma, Day 1 (n = 46), Mean (SD), 300 mg BID, plasma, participants with severe COVID-19, Bayesian population PK analysis, read-out: Cmax): 3680 ng/mL | AUC(0-t) ([1]; plasma, Day 3 (n = 42), Mean (SD), 300 mg BID, plasma, participants with severe COVID-19, Bayesian population PK analysis, read-out: AUC0-12): 42200 ng·h/mL | Cmax ([1]; plasma, Day 3 (n = 42), Mean (SD), 300 mg BID, plasma, participants with severe COVID-19, Bayesian population PK analysis, read-out: Cmax): 5170 ng/mL | AUC(0-t) ([1]; plasma, Day 7 (n = 26), Mean (SD), 300 mg BID, plasma, participants with severe COVID-19, Bayesian population PK analysis, read-out: AUC0-12): 43800 ng·h/mL | Cmax ([1]; plasma, Day 7 (n = 26), Mean (SD), 300 mg BID, plasma, participants with severe COVID-19, Bayesian population PK analysis, read-out: Cmax): 5340 ng/mL | AUC(0-t) ([1]; plasma, Day 14 (n = 10), Mean (SD), 300 mg BID, plasma, participants with severe COVID-19, Bayesian population PK analysis, read-out: AUC0-12): 48400 ng·h/mL | Cmax ([1]; plasma, Day 14 (n = 10), Mean (SD), 300 mg BID, plasma, participants with severe COVID-19, Bayesian population PK analysis, read-out: Cmax): 5630 ng/mL | IL-6 fold change from baseline [2, 3]: 0.4 | IL-10 fold change from baseline [2, 3]: 0.48 | chemokine (C-X-C motif) Ligand 10 fold change from baseline [2, 3]: 0.26 | interferon gamma fold change from baseline [2, 3]: 0.44 | IL-6, ratio of relatives changes (RIPK1 Inhibitor versus placebo) [2, 4]: 0.63 | IL-10, ratio of relatives changes (RIPK1 Inhibitor versus placebo) [2, 4]: 0.82 | chemokine (C-X-C Motif) Ligand 10, ratio of relatives changes (RIPK1 Inhibitor versus placebo) [2, 4]: 0.7 | monocyte chemotactic protein 1, ratio of fold changes between RIPK1 Inhibitor and placebo [2, 4]: 0.85 | Chemokine (C-C Motif) Ligand 13 (pg/mL): RIPK1 Inhibitor 600 mg vs Placebo Fold-Change ([2]; Day 7, LOCF, Safety population): 1.15 (60) | Chemokine (C-X-C Motif) Ligand 10 (pg/mL): RIPK1 Inhibitor 600 mg vs Placebo Fold-Change ([2]; Day 7, LOCF, Safety population): 0.7 (56) | Eotaxin-1 (pg/mL): RIPK1 Inhibitor 600 mg vs Placebo Fold-Change ([2]; Day 7, LOCF, Safety population): 1.03 (65) | Interferon Gamma (pg/mL): RIPK1 Inhibitor 600 mg vs Placebo Fold-Change ([2]; Day 7, LOCF, Safety population): 1.03 (66) | Interleukin 6 (pg/mL): RIPK1 Inhibitor 600 mg vs Placebo Fold-Change ([2]; Day 7, LOCF, Safety population): 0.63 (66) | Interleukin 8 - Cytokines (pg/mL): RIPK1 Inhibitor 600 mg vs Placebo Fold-Change ([2]; Day 7, LOCF, Safety population): 0.8 (66) | Interleukin 10 (pg/mL): RIPK1 Inhibitor 600 mg vs Placebo Fold-Change ([2]; Day 7, LOCF, Safety population): 0.82 (66) | Macrophage Inflammatory Protein 1 Beta (pg/mL): RIPK1 Inhibitor 600 mg vs Placebo Fold-Change ([2]; Day 7, LOCF, Safety population): 0.85 (60) | Macrophage-Derived Chemokine (pg/mL): RIPK1 Inhibitor 600 mg vs Placebo Fold-Change ([2]; Day 7, LOCF, Safety population): 1.2 (60) | Monocyte Chemotactic Protein 1 (pg/mL): RIPK1 Inhibitor 600 mg vs Placebo Fold-Change ([2]; Day 7, LOCF, Safety population): 0.85 (60) | Ratio of Interleukin 6 and Interleukin 10 (RATIO): RIPK1 Inhibitor 600 mg vs Placebo Fold-Change ([2]; Day 7, LOCF, Safety population): 0.86 (66) | Tumor Necrosis Factor alpha (pg/mL): RIPK1 Inhibitor 600 mg vs Placebo Fold-Change ([2]; Day 7, LOCF, Safety population): 0.98 (66) | okine (C-C Motif) Ligand 17: RIPK1 Inhibitor 600 mg vs Placebo Fold-Change ([2]; Day 7, LOCF, Safety population): 1 (60) | Chemokine (C-C Motif) Ligand 13 (pg/mL): RIPK1 Inhibitor 600 mg Fold-Change [2, 5]: 1.31 (41) | Chemokine (C-X-C Motif) Ligand 10 (pg/mL): RIPK1 Inhibitor 600 mg Fold-Change [2, 5]: 0.26 (37) | Eotaxin-1 (pg/mL): RIPK1 Inhibitor 600 mg Fold-Change [2, 5]: 1.21 (45) | Interferon Gamma (pg/mL): RIPK1 Inhibitor 600 mg Fold-Change [2, 5]: 0.44 (47) | Interleukin 6 (pg/mL): RIPK1 Inhibitor 600 mg Fold-Change [2, 5]: 0.4 (47)

From patent US20230233576A1, “ECLITASERTIB FOR USE IN TREATING CONDITIONS INVOLVING SYSTEMIC HYPERINFLAMMATORY RESPONSE” (priority 2020, published 2023)
